The supplement of paper PMC10307832

What was measured:
Assay in all cases: relative viability (nuclei count vs DMSO), 5 days (fraction); higher = more cells survive
Metformin + OSI-027 = compound: CN(C)C(=N)NC(=N)N [Metformin] + COc1cccc2cc(-c3nc([C@H]4CC[C@H](C(=O)O)CC4)n4ncnc(N)c34)[nH]c12 [OSI-027] (partner 0.5 µM)
Summary of the method: (§1)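 Relative viability is defined as nuclei in treated wells over nuclei in vehicle wells. Duplicate plates were run and medians reported. Lung cancer cell lines in 1536-well plates were dosed by pin tool one day after seeding, with one drug or with a fixed anchor-drug dose plus five library-drug doses (not always all listed) in √10 steps, and nuclei were counted after 5 days.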

Metformin + Linsitinib = compound: CN(C)C(=N)NC(=N)N [Metformin] + C[C@]1(O)C[C@@H](c2nc(-c3ccc4ccc(-c5ccccc5)nc4c3)c3c(N)nccn32)C1 [Linsitinib] (partner 1 µM)
Summary of the method: as §1

Metformin + Phenformin = compound: CN(C)C(=N)NC(=N)N [Metformin] + N=C(N)NC(=N)NCCc1ccccc1 [Phenformin] (partner 250 µM)
Summary of the method: as §1

Apatinib + Luminespib = compound: N#CC1(c2ccc(NC(=O)c3cccnc3NCc3ccncc3)cc2)CCCC1 [Apatinib] + CCNC(=O)c1noc(-c2cc(C(C)C)c(O)cc2O)c1-c1ccc(CN2CCOCC2)cc1 [Luminespib] (partner 0.01 µM)
Summary of the method: as §1

Cell Line | relative viability (Metformin + OSI-027; first compound 10 µM) | relative viability (Metformin + OSI-027; first compound 31.62 µM) | relative viability (Metformin + OSI-027; first compound 100 µM) | relative viability (Metformin + OSI-027; first compound 316.23 µM) | relative viability (Metformin + OSI-027; first compound 1000 µM) | relative viability (Metformin + Linsitinib; first compound 10 µM) | relative viability (Metformin + Linsitinib; first compound 31.62 µM) | relative viability (Metformin + Linsitinib; first compound 100 µM) | relative viability (Metformin + Linsitinib; first compound 316.23 µM) | relative viability (Metformin + Linsitinib; first compound 1000 µM) | relative viability (Metformin + Phenformin; first compound 10 µM) | relative viability (Metformin + Phenformin; first compound 31.62 µM) | relative viability (Metformin + Phenformin; first compound 100 µM) | relative viability (Metformin + Phenformin; first compound 316.23 µM) | relative viability (Metformin + Phenformin; first compound 1000 µM) | relative viability (Apatinib + Luminespib; first compound 0.08 µM) | relative viability (Apatinib + Luminespib; first compound 0.253 µM) | relative viability (Apatinib + Luminespib; first compound 0.8 µM) | relative viability (Apatinib + Luminespib; first compound 2.53 µM) | relative viability (Apatinib + Luminespib; first compound 8 µM)
COR-L23 | 0.644 | 0.68 | 0.571 | 0.605 | 0.782 | 0.821 | 0.828 | 0.9 | 0.77 | 0.843 | 0.437 | 0.46 | 0.487 | 0.431 | 0.146 | 0.687 | 0.643 | 0.702 | 0.628 | 0.509
A-427 | 0.45 | 0.493 | 0.44 | 0.458 | 0.492 | 1.09 | 1.13 | 1.09 | 1.1 | 1.04 | 0.32 | 0.376 | 0.325 | 0.284 | 0.287 | 0.924 | 0.779 | 0.928 | 0.72 | 0.8
NCI-H2342 | 0.538 | 0.617 | 0.55 | 0.549 | 0.568 | – | – | – | – | – | 0.59 | 0.47 | 0.494 | 0.51 | 0.572 | 0.677 | 0.552 | 0.81 | 0.702 | 0.726
201T | – | 0.955 | 0.875 | 0.881 | 0.517 | – | 1.12 | 1.1 | 1.07 | 1.06 | – | 0.426 | 0.47 | 0.435 | 0.414 | 0.983 | 1.02 | 1.12 | 1 | 0.855
NCI-H522 | 0.796 | 0.752 | 0.708 | 0.744 | 0.667 | – | – | – | – | – | 0.716 | 0.649 | 0.713 | 0.584 | 0.712 | 1.14 | 1.08 | 1.27 | 1.07 | 0.955
NCI-H2023 | 0.421 | 0.558 | 0.379 | 0.397 | 0.378 | – | 0.687 | 0.806 | – | 0.515 | 0.396 | 0.376 | 0.408 | 0.393 | 0.354 | 0.981 | 0.917 | 0.708 | 0.507 | 0.649
NCI-H2085 | 0.649 | 0.54 | 0.721 | 0.718 | 0.703 | 0.822 | 0.8 | 0.765 | 0.844 | 0.875 | 0.693 | 0.729 | 0.722 | 0.673 | 0.864 | 0.396 | 0.527 | 0.429 | 0.421 | 0.361
LXF-289 | 0.764 | 0.737 | 0.738 | 0.721 | 0.735 | 0.923 | 0.912 | 0.996 | 0.879 | 0.915 | 0.48 | 0.525 | 0.537 | 0.509 | 0.51 | 0.644 | 0.857 | 0.633 | 0.652 | 0.743
NCI-H1975 | 0.96 | 1.08 | 0.748 | 0.891 | 0.949 | 1.09 | 1.26 | 1.07 | 1.18 | 1.31 | 0.422 | 0.436 | 0.418 | 0.414 | 0.404 | 0.167 | 0.195 | 0.229 | 0.176 | 0.262
LU99A | 0.302 | 0.321 | 0.3 | 0.309 | 0.289 | 0.493 | 0.491 | 0.466 | 0.377 | 0.514 | 0.937 | 0.816 | 0.761 | 0.775 | 0.919 | 0.294 | 0.302 | 0.221 | 0.241 | 0.213
HCC-827 | – | 0.714 | 0.704 | 0.586 | 0.73 | – | 0.89 | 0.945 | 0.883 | 0.973 | – | 0.412 | 0.376 | 0.365 | 0.373 | 0.765 | 0.704 | 0.391 | 0.777 | 0.566
BEN | 0.271 | 0.275 | 0.3 | 0.314 | 0.263 | 1.21 | 1.27 | 1.3 | 1.15 | 1.29 | 0.295 | 0.292 | 0.297 | 0.27 | 0.252 | 0.478 | 0.348 | 0.385 | 0.336 | 0.229
NCI-H1755 | 0.614 | 0.729 | 0.701 | 0.636 | 0.579 | 0.842 | 0.84 | 0.871 | 0.843 | 0.914 | 0.543 | 0.626 | 0.639 | 0.613 | 0.632 | 0.295 | 0.695 | 0.524 | 0.491 | 0.479
ChaGo-K-1 | 0.595 | 0.599 | 0.6 | 0.543 | 0.597 | – | – | – | – | – | 0.539 | 0.498 | 0.488 | 0.489 | 0.557 | 0.618 | 0.679 | 0.661 | 0.519 | 0.564
Calu-6 | – | – | – | – | – | 0.862 | 0.971 | 0.921 | 0.941 | 0.978 | – | – | – | – | – | – | – | – | – | –
IA-LM | – | – | – | – | – | 0.119 | 0.729 | 0.611 | 0.404 | 0.78 | – | – | – | – | – | – | – | – | – | –
HCC-366 | 0.757 | 0.967 | 0.991 | 0.808 | 1.28 | 0.646 | 0.703 | 0.75 | 0.559 | 0.691 | 0.403 | 0.679 | 0.616 | 0.644 | 0.734 | – | – | – | – | –
EBC-1 | – | – | – | – | – | 0.796 | 0.997 | 0.815 | 0.698 | 0.884 | – | – | – | – | – | – | – | – | – | –
NCI-H1623 | 0.449 | 0.469 | 0.463 | 0.539 | 0.478 | – | – | – | – | – | 0.556 | 0.553 | 0.569 | 0.577 | 0.371 | 0.402 | 0.429 | 0.465 | 0.461 | 0.476
NCI-H1648 | 0.24 | 0.264 | 0.264 | 0.285 | 0.279 | – | – | – | – | – | – | – | – | – | – | – | – | – | – | –
NCI-H2170 | 0.566 | 0.52 | 0.683 | 0.673 | 0.711 | – | – | – | – | – | 0.369 | 0.434 | 0.444 | 0.441 | 0.469 | 0.841 | 0.649 | 0.609 | 0.676 | 0.621
NCI-H1299 | – | – | – | – | – | 1.03 | 1.04 | 1 | 0.958 | 0.974 | – | – | – | – | – | – | – | – | – | –
